# Data published in patent US5420106A, “Method and composition having enhanced alpha-hydroxy acid skin permeation and retention” (priority 1994, dated 1995).
# How the values were obtained:
# [1] = In-vitro skin permeation study of lactic acid, Franz diffusion cell at finite dose (14C-lactic acid); assay type: in vitro ADME
# Protocol: The skin permeation test was conducted by the following procedure:
# In-vitro Skin Permeation Study
# (§1) Franz Diffusion Cell Study at Finite Dose
# (§2) For each formulation, skin sections were mounted on three or four flat flange Franz diffusion cells (FDC 400) with a diffusional cross-section area of 1.2cm^2. About 60 to 100 mg of test formulation were placed on the stratum corneum surface of the skin in the donor compartment and the receptor compartment was filled with about 11 ml of normal saline. The receptor fluid was well stirred throughout the experiment and the temperature was maintained by circulating water at 37° C. through the water jacket of the diffusion cells. Precisely 500 μl of receptor fluid was collected in a scintillation vial at appropriate intervals for a period of 68 hours. […] The receptor fluid was replenished after each withdrawal. All the receptor fluid and replenished fluids were filtered using a 0.22 μm filter and thoroughly degassed before use.
# [2] = Skin retention of lactic acid (epidermis and dermis analysis after the permeation study); assay type: in vitro ADME
# Protocol: as §1, §2
# Cotton swabs were used during the rinsing procedure to recover the remaining surface dose. A circular incision was made in the skin exposed to the formulation. The epidermis at the circular edge was slowly lifted using a pointed flat spatula, and then separated from the dermis using forceps. The epidermis and dermis were transferred to previously weighed teflon tape and dried in a desiccator for 72 hours until a constant weight was obtained. […]
# [3] = cited from earlier work
# [4] = in vivo; cited from earlier work
# [5] = hydrated skin; cited from earlier work
compound,measurement,setting,value
"CCCCCCCCCCCCCC(=O)OC(C)C [IPM, isopropyl myristate]",skin permeation enhancer effect for lactic acid,"[1]; FIGS. 1-2, IPM vs PGD in lysine lactate lotions",better skin permeation enhancer for lactic acid than PGD
CC(O)C(=O)O (centres unmarked) [ammonium lactate],skin retention of lactic acid / α-hydroxy acid (general finding),[2],excellent lactic acid skin permeation and skin retention profiles
same,skin retention of lactic acid,[2]; pH 4.6,excellent skin retention
same,potency for other dermatological disorders,"[3]; U.S. Pat. No. 5,091,171, topical ammonium salts",lost most of its potency
same,effectiveness in treating dermatological disorders,[3]; topical,very effective
same,skin irritation,[4],skin irritant to a degree which many patients find unacceptable
CC(C)NCC(O)COc1cccc2ccccc12 (centres unmarked) [propranolol],permeation or permeation rate on hydration of skin,[5],decreases the permeation rate by two fold
CC(C)[C@H](N)C(=O)O [valine],enhancement of skin permeation of lactic acid by valine,[1],does not enhance skin permeation of lactic acid
